Experimental data published in patent US8252740B2, “Thermally-targeted delivery of medicaments including doxorubicin” (The University of Mississippi Medical Center, priority 2006, dated 2012).

How the values were obtained:
[1] = tested on: MES-SA uterine sarcoma cells; assay: Polypeptide uptake by flow cytometry of Dox fluorescence; type: cell-based, human
Method: In order to test whether the induction of ELP aggregation with hyperthermia can enhance the cellular uptake of the polypeptide, MES-SA uterine sarcoma cells were incubated with Tat-ELP-GFLG-DOX (SEQ ID NO: 3) for 1 h at either 37 or 42° C. Cells were then analyzed by flow cytometry, using the natural DOX fluorescence to quantify the amount of drug in the cells. When treated with the ELP1 containing construct, which aggregates at 40° C., the amount of drug delivered to the cells increases almost 2-fold (FIG. 10). […] This illustrates that the enhanced uptake observed after hyperthermia is the result of the ELP phase transition, not nonspecific effects of hyperthermia.
1.6. Polypeptide Uptake. Cells were treated with 20 μM Tat-ELP1-GFLG-Dox (SEQ ID NO: 3), Tat-ELP2-GFLG-Dox (SEQ ID NO: 3), or control polypeptides lacking the Tat sequence as described above. Duplicate plates were treated for 1 h at 37° C. and 42° C. Cells were rinsed with PBS and harvested using nonenzymatic cell dissociation buffer (Invitrogen), centrifuged for 2 min, and resuspended in 0.5 ml PBS. Total uptake of the doxorubicin labeled polypeptides was measured using the intrinsic Dox fluorescence by a Cytomics FC 500 flow cytometer (Beckman Coulter, Fullerton, Calif.). Forward versus side scatter gating was used to remove cell debris from the analysis, and Dox fluorescence was measured using FL3. Each histogram was a unimodal peak (n=5000 cells), and the peak mean was normalized to propidium standard beads.
3.3. Cellular Uptake of ELP-delivered Doxorubicin. MES-SA uterine sarcoma cells were used in this study to evaluate the efficiency of ELP-mediated cellular delivery of doxorubicin. […] After harvesting the cells with non-enzymatic cell dissociation buffer to prevent degradation of polypeptide attached to the cell surface, the non-fixed cells were analyzed by flow cytometry to measure the Dox fluorescence. […] Cellular fluorescence was increased over 2 fold when the MES-SA cells were treated with Tat-ELP1-GFLG-Dox (SEQ ID NO: 3) at 42° C. rather than 37° C. […]

MES-SA cells = assay: Confocal fluorescence microscopy of intracellular localization; type: cell-based, human; conditions: 10 μM
Method: 1.7. Laser Scanning Confocal Fluorescence Microscopy. MES-SA cells were plated on 22 mm^2 cover slips at approximately 50% confluence and treated as described above with Tat-ELP-GFLG-Dox (SEQ ID NO: 3). Cells were rinsed with PBS at the indicated times, fixed with paraformaldehyde (PFA, 2% v/v) and visualized using a TCS SP2 laser scanning confocal microscope with a 100× oil immersion objective (Leica, Wetzlar, Germany). PMT voltages were lowered for imaging of cells treated at 42° C. during image acquisition to maximize image resolution and intensity.
3.4. Cellular Distribution. To confirm that Tat-ELP-GFLG-Dox (SEQ ID NO: 3) was internalized and not merely attached to the cell exterior, the cellular distribution of the ELP-delivered drug was examined by confocal fluorescence microscopy. MES-SA cells were treated for 1 h at 37° C. and 42° C. with 10 μM Tat-ELP1-GFLG-Dox (SEQ ID NO: 3). The cells were rinsed and analyzed immediately after treatment and 24 h later using the intrinsic Dox fluorescence. […] Untreated cells had no signal under the imaging settings used, ruling out any contribution to the images from autofluorescence (FIG. 7B, right panel).

Tat-ELP1-GFLG-Dox was tested, and the “Increase of drug delivered to cells at 42° C. versus 37° C.” value ([1]; 10 μM, 1 h (FIG. 10)) was ~2 fold, the “Increase of cellular fluorescence at 42° C. versus 37° C.” value ([1]; 20 μM, 1 h) was “over 2 fold” and the “Uptake relative to ELP1-GFLG-Dox” value ([1]; 20 μM, 1 h, 42° C.) was 6 fold. For the same substance, the “Intracellular localization of Dox” value (MES-SA cells; 24 h after 1 h exposure) was “remained in the cell cytoplasm” and the “Intracellular localization of Dox” value (MES-SA cells; after 1 h exposure) was “plasma and nuclear membranes as well as in a punctate pattern in the cytoplasm”.
